Among the data in patent US20230295197A1, “STAT5 and STAT6 Degraders and Uses Thereof” (REGENTS OF THE UNIVERSITY OF MICHICAN, priority 2022, published 2023) are DC50 values, retold here.

Where two headings read alike, the source gives them in different places.

By DC50 is commonly meant the midpoint of the concentration-degradation curve.

One test addresses T1, STAT6 (Homo sapiens, UniProt P42226).
T1 construct: endogenous in cells; host or cells: MOLM-16, KU-812, SKNO1, MB231, L1236
T1 sequence (P42226 1-847): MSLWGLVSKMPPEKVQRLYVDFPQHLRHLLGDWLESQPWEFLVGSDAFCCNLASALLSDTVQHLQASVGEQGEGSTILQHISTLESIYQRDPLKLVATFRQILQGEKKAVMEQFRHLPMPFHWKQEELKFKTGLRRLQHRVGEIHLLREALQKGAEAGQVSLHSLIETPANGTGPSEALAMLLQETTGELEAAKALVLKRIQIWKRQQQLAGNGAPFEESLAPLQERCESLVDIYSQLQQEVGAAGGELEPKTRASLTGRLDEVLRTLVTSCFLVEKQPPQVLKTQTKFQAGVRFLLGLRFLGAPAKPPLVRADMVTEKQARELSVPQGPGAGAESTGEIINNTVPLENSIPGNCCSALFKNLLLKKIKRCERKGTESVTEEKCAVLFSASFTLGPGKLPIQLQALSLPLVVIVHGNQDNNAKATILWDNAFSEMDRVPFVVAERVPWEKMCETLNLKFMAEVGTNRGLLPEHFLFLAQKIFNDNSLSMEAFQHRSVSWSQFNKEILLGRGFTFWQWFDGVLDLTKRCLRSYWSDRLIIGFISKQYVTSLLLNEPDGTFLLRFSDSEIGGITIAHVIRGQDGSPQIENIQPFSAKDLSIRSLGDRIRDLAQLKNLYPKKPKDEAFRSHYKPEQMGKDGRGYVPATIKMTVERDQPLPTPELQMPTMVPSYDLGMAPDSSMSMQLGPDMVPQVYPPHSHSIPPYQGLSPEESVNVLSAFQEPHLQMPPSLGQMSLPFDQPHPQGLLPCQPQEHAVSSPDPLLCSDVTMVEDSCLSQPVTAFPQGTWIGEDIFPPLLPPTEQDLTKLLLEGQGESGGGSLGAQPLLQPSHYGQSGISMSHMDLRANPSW
In words: Immunoblotting (Western blot) analysis of STAT6 degradation efficiency of degraders in treated cells. It is filed as cell-based. To be noted: MOLM-16 cells, read-out: DC50 S6 MOLM-16. The method in brief:
(§1)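 Treatment of cells with degraders at stated concentrations and exposure times comes first. Lysates are then equalised for total protein by BCA, and the proteins are separated, transferred and immunostained for STAT6 or STAT5 alongside GAPDH. Signal is quantified from infrared fluorescence.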
For orientation: Immunoblotting shows a protein as a band on a membrane.

The subject of another test is STAT5. In words: Immunoblotting (Western blot) analysis of STAT5 degradation efficiency of degraders in treated cells. The format is cell-based. The essentials:
as §1

Setting [1] is: MOLM-16 cells, numeric bound, read-out: DC50 S5 MOLM-16.
Setting [2] is: KU-812 cells, read-out: DC50 S5 KU-812.
The mark [3] stands for this setting: SKNO1 cells, read-out: DC50 S5 SKNO1.
The mark [4] stands for this setting: MOLM-16 cells, class symbols, read-out: DC50 S5 MOLM-16.

`CC(C)(C)[C@H](NC(=O)c1cc2cc(C(F)(F)P(=O)(O)O)ccc2s1)C(=O)N1C[C@H](OCCCCCCC#Cc2cccc3c2CN(C2CCC(=O)NC2=O)C3=O)C[C@H]1C(=O)Nc1ncc(-c2ccccc2)s1` (stereo partly drawn) [Compound 606, ((2-(((2S)-1-((2S,4R)-4-((8-(2-(2,6-dioxopiperidin-3-yl)-1-oxoisoindolin-4-yl)oct-7-yn-1-yl)oxy)-2-((5-phenylthiazol-2-yl)carbamoyl)pyrrolidin-1-yl)-3,3-dimethyl-1-oxobutan-2-yl)carbamoyl)benzo[b]thiophen-5-yl)difluoromethyl)phosphonic acid]: the DC50 at STAT6 (numeric bound) and in the test on STAT5 (setting [1]) was more than 300 nM each time.

For the compound `CC(C)(C)[C@H](NC(=O)c1cc2cc(C(F)(F)P(=O)(O)O)ccc2s1)C(=O)N1CCC[C@H]1C(=O)N(CCC(=O)NCCC#Cc1cccc2c1CN(C1CCC(=O)NC1=O)C2=O)c1ccc(Br)cc1` (stereo partly drawn) [Compound 614, ((2-(((2S)-1-((2S)-2-((4-bromophenyl)(3-((4-(2-(2,6-dioxopiperidin-3-yl)-1-oxoisoindolin-4-yl)but-3-yn-1-yl)amino)-3-oxopropyl)carbamoyl)pyrrolidin-1-yl)-3,3-dimethyl-1-oxobutan-2-yl)carbamoyl)benzo[b]thiophen-5-yl)difluoromethyl)phosphonic acid], the DC50 is more than 10000 nM on STAT6 (class symbols), more than 10000 nM with STAT5 (setting [2]), more than 300 nM with STAT5 (setting [1]) and more than 10000 nM in the test on STAT5 (setting [3]).

Regarding `CC(C)(C)[C@H](NC(=O)c1cc2cc(C(F)(F)P(=O)(O)O)ccc2s1)C(=O)N1CCC[C@H]1C(=O)N(CCC(=O)NCCCC#Cc1cccc2c1CN(C1CCC(=O)NC1=O)C2=O)c1ccc2sccc2c1` (stereo partly drawn) [Compound 650, ((2-(((2S)-1-((2S)-2-(benzo[b]thiophen-5-yl(3-((5-(2-(2,6-dioxopiperidin-3-yl)-1-oxoisoindolin-4-yl)pent-4-yn-1-yl)amino)-3-oxopropyl)carbamoyl)pyrrolidin-1-yl)-3,3-dimethyl-1-oxobutan-2-yl)carbamoyl)benzo[b]thiophen-5-yl)difluoromethyl)phosphonic acid], the DC50 was more than 300 nM at STAT6 (numeric bound), 100 to 1000 nM in the test with STAT5 (setting [2]), less than 100 nM in the test on STAT5 (setting [4]) and 100 to 1000 nM with STAT5 (setting [3]).

Regarding `CC(C)(C)C(=O)OCOP(=O)(O)C(F)(F)c1ccc2sc(C(=O)N[C@H](C(=O)N3C[C@@H](OCCCCCC#Cc4cccc5c4CN(C4CCC(=O)NC4=O)C5=O)C[C@H]3C(=O)N3CCO[C@H](c4ccccc4)C3)C(C)(C)C)cc2c1` (stereo partly drawn) [Compound 652, ((((2-(((2S)-1-((2S,4S)-4-((7-(2-(2,6-dioxopiperidin-3-yl)-1-oxoisoindolin-4-yl)hept-6-yn-1-yl)oxy)-2-((R)-2-phenylmorpholine-4-carbonyl)pyrrolidin-1-yl)-3,3-dimethyl-1-oxobutan-2-yl)carbamoyl)benzo[b]thiophen-5-yl)difluoromethyl)(hydroxy)phosphoryl)oxy)methyl pivalate], the DC50 at STAT6 (class symbols) was less than 100 nM; with STAT5 (setting [4]) it was more than 10000 nM.

Consider `CC(C)(C)C(=O)OCOP(=O)(O)C(F)(F)c1ccc2sc(C(=O)N[C@H](C(=O)N3CCC[C@H]3C(=O)N(CCC(=O)NCCCC#Cc3cccc4c3CN(C3CCC(=O)NC3=O)C4=O)c3ccc(Br)cc3)C(C)(C)C)cc2c1` (stereo partly drawn) [Compound 653, ((((2-(((2S)-1-((2S)-2-((4-bromophenyl)(3-((5-(2-(2,6-dioxopiperidin-3-yl)-1-oxoisoindolin-4-yl)pent-4-yn-1-yl)amino)-3-oxopropyl)carbamoyl)pyrrolidin-1-yl)-3,3-dimethyl-1-oxobutan-2-yl)carbamoyl)benzo[b]thiophen-5-yl)difluoromethyl)(hydroxy)phosphoryl)oxy)methyl pivalate], for which the DC50 on STAT6 (class symbols) is less than 100 nM; in the test on STAT5 (setting [1]), more than 300 nM.

In the case of `CC(C)(C)[C@H](NC(=O)c1cc2cc(C(F)(F)P(=O)(O)O)ccc2s1)C(=O)N1CCC[C@H]1C(=O)N(CCC(=O)NCCCC#Cc1cccc2c1CN(C1CCC(=O)NC1=O)C2=O)c1ccc(S(C)(=O)=O)cc1` (stereo partly drawn) [Compound 654, ((2-(((2S)-1-((2S)-2-((3-((5-(2-(2,6-dioxopiperidin-3-yl)-1-oxoisoindolin-4-yl)pent-4-yn-1-yl)amino)-3-oxopropyl)(4-(methylsulfonyl)phenyl)carbamoyl)pyrrolidin-1-yl)-3,3-dimethyl-1-oxobutan-2-yl)carbamoyl)benzo[b]thiophen-5-yl)difluoromethyl)phosphonic acid], the 50% degradation concentration (DC50) was more than 300 nM at STAT6 (numeric bound), more than 300 nM in the test on STAT5 (setting [1]) and more than 10000 nM with STAT5 (setting [3]).

Take `CC(C)(C)[C@H](NC(=O)c1cc2cc(C(F)(F)P(=O)(O)O)ccc2s1)C(=O)N1CCC[C@H]1C(=O)N(CCC(=O)NCCCC#Cc1cccc2c1CN(C1CCC(=O)NC1=O)C2=O)c1ccc(-c2nccs2)cc1` (stereo partly drawn) [Compound 655, ((2-(((2S)-1-((2S)-2-((3-((5-(2-(2,6-dioxopiperidin-3-yl)-1-oxoisoindolin-4-yl)pent-4-yn-1-yl)amino)-3-oxopropyl)(4-(thiazol-2-yl)phenyl)carbamoyl)pyrrolidin-1-yl)-3,3-dimethyl-1-oxobutan-2-yl)carbamoyl)benzo[b]thiophen-5-yl)difluoromethyl)phosphonic acid]: the DC50 at STAT6 (numeric bound) was more than 300 nM; with STAT5 (setting [2]) it was 100 to 1000 nM; in the test on STAT5 (setting [4]), less than 100 nM; in the test on STAT5 (setting [3]), 100 to 1000 nM.

Turning to `CC(C)(C)[C@H](NC(=O)c1cc2cc(C(F)(F)P(=O)(O)O)ccc2s1)C(=O)N1CCC[C@H]1C(=O)N(CCC(=O)NCCCC#Cc1cccc2c1CN(C1CCC(=O)NC1=O)C2=O)c1ccc2ccccc2c1` (stereo partly drawn) [Compound 656, ((2-(((2S)-1-((2S)-2-((3-((5-(2-(2,6-dioxopiperidin-3-yl)-1-oxoisoindolin-4-yl)pent-4-yn-1-yl)amino)-3-oxopropyl)(naphthalen-2-yl)carbamoyl)pyrrolidin-1-yl)-3,3-dimethyl-1-oxobutan-2-yl)carbamoyl)benzo[b]thiophen-5-yl)difluoromethyl)phosphonic acid], the half-maximal degradation concentration (DC50) was more than 300 nM on STAT6 (numeric bound), 100 to 1000 nM in the test on STAT5 (setting [2]), less than 100 nM in the test on STAT5 (setting [4]) and 100 to 1000 nM with STAT5 (setting [3]).

Turning to `CC(C)(C)[C@H](NC(=O)c1cc2cc(C(F)(F)P(=O)(O)O)ccc2s1)C(=O)N1CCC[C@H]1C(=O)N1Cc2ccccc2CC1C(=O)NCCCC#Cc1cccc2c1CN(C1CCC(=O)NC1=O)C2=O` (stereo partly drawn) [Compound 657, ((2-(((2S)-1-((2S)-2-(3-((5-(2-(2,6-dioxopiperidin-3-yl)-1-oxoisoindolin-4-yl)pent-4-yn-1-yl)carbamoyl)-1,2,3,4-tetrahydroisoquinoline-2-carbonyl)pyrrolidin-1-yl)-3,3-dimethyl-1-oxobutan-2-yl)carbamoyl)benzo[b]thiophen-5-yl)difluoromethyl)phosphonic acid], the DC50 on STAT6 (numeric bound) and with STAT5 (setting [1]) was more than 300 nM each time.

On to `CC(C)(C)[C@H](NC(=O)c1cc2cc(C(F)(F)P(=O)(O)O)ccc2s1)C(=O)N1CCC[C@H]1C(=O)N1C[C@@H](Oc2ccccc2)C[C@H]1C(=O)NCCCC#Cc1cccc2c1CN(C1CCC(=O)NC1=O)C2=O` (stereo partly drawn) [Compound 658, ((2-(((2S)-1-((2S)-2-((2S,4S)-2-((5-(2-(2,6-dioxopiperidin-3-yl)-1-oxoisoindolin-4-yl)pent-4-yn-1-yl)carbamoyl)-4-phenoxypyrrolidine-1-carbonyl)pyrrolidin-1-yl)-3,3-dimethyl-1-oxobutan-2-yl)carbamoyl)benzo[b]thiophen-5-yl)difluoromethyl)phosphonic acid], for which the DC50 at STAT6 (numeric bound) and in the test with STAT5 (setting [1]) was more than 300 nM each time.
